Laboratory results reported in DBAASP.
Converted amounts (≈) assume the structure as drawn. “And” between values parts separate entries of the source, which are not always exact repeats. Equal values may be shown once. Each block holds one compound with its values, some of them ahead of it.

Key:
Assay in all cases: ≥ marks a high value that may be exact or a test limit, other limits are often not marked, values filed in µg/mL are converted to µM
[1] = tested on: Listeria monocytogenes LO28
[2] = tested on: Cronobacter sakazakii DPC 6440
[3] = tested on: Mycobacterium tuberculosis H37Rv
[4] = tested on: Candida albicans ATCC 24433
[5] = tested on: Escherichia coli ATCC 25922
[6] = tested on: Staphylococcus epidermidis ATCC 12228
Candida albicans = tested on: Candida albicans
[7] = tested on: Staphylococcus aureus ATCC 25923
Staphylococcus aureus MR = tested on: Staphylococcus aureus MR
Klebsiella pneumoniae = tested on: Klebsiella pneumoniae
[8] = tested on: Escherichia coli ATCC 8739
[9] = tested on: Pseudomonas aeruginosa ATCC 27853
[10] = tested on: Pseudomonas aeruginosa PA14
Staphylococcus aureus = tested on: Staphylococcus aureus
[11] = tested on: Pseudomonas aeruginosa PAO1
Escherichia coli = tested on: Escherichia coli
[12] = tested on: Clavibacter michiganensis subsp. michiganensis DSM 46294
[13] = tested on: Xanthomonas vesicatoria DSM 50861
[14] = tested on: Pseudomonas corrugata DSM 7228
[15] = tested on: Pseudomonas syringae pv. syringae DSM 10604
[16] = tested on: Pseudomonas syringae pv. tomato DC3000
[17] = tested on: Pectobacterium carotovorum subsp. carotovorum DSM 30168
[18] = tested on: Enterococcus faecium CGMCC 1.2334
[19] = tested on: Enterococcus faecalis CGMCC 1.595
[20] = tested on: Staphylococcus aureus AS1.72
Escherichia coli AS1.349 = tested on: Escherichia coli AS1.349
[21] = tested on: Lactococcus lactis AS1.1690
Bacillus cereus AS1.126 = tested on: Bacillus cereus AS1.126
[22] = tested on: Pseudomonas aeruginosa CGMCC 1.860
[23] = tested on: Candida parapsilosis ATCC 22019

- MIC [1]: ≥ 78.1 µM
- MIC [2]: ≥ 78.1 µM
SMILES: CC[C@H](C)[C@H](NC(=O)[C@H](C)N)C(=O)N[C@@H](CCC(N)=O)C(=O)N1CCC[C@H]1C(=O)N[C@@H](CCCCN)C(=O)N[C@H](C(=O)N[C@@H](CCCCN)C(=O)N[C@H](C(=O)N[C@H](C(=O)N1CCC[C@H]1C(=O)N[C@@H](Cc1ccc(O)cc1)C(=O)N[C@H](C(=O)N[C@@H](CCCN=C(N)N)C(=O)N[C@@H](Cc1ccc(O)cc1)C(=O)N[C@@H](CC(C)C)C(=O)O)C(C)C)[C@@H](C)CC)C(C)C)[C@@H](C)O [AIQPKTKVIPYVRYL]

- MIC [12]: 0.299 µM (≈ 0.5 µg/mL)
- MIC [13]: 0.299 µM (≈ 0.5 µg/mL)
- MIC [14]: 0.149 µM (≈ 0.25 µg/mL)
- MIC [15]: 0.0598 µM (≈ 0.1 µg/mL)
- MIC [16]: 5.98 µM (≈ 9.99 µg/mL)
- MIC [17]: 5.98 µM (≈ 9.99 µg/mL)
SMILES: CC(C)C[C@H](NC(=O)[C@H](CCCN=C(N)N)NC(=O)[C@H](CCCCN)NC(=O)[C@H](Cc1ccccc1)NC(=O)[C@H](Cc1ccccc1)NC(=O)[C@H](CCCCN)NC(=O)[C@H](Cc1ccccc1)NC(=O)[C@H](CCCCN)NC(=O)[C@H](CCCCN)NC(=O)[C@H](CCCCN)NC(=O)[C@@H](N)CCCN=C(N)N)C(=O)N[C@@H](Cc1ccccc1)C(N)=O [RKKKFKFFKRLF]

- MIC [18]: ≥ 100 µM
- MIC [19]: ≥ 100 µM
- MIC [20]: ≥ 100 µM
- MIC (Escherichia coli AS1.349): ≥ 100 µM
- MIC [21]: ≥ 100 µM
- MIC (Bacillus cereus AS1.126): ≥ 100 µM
- MIC [22]: ≥ 100 µM
SMILES: CC(C)[C@H](NC(=O)[C@H](CCCCN)NC(=O)[C@@H](N)CO)C(=O)N[C@@H](Cc1c[nH]c2ccccc12)C(=O)N[C@@H](CCCN=C(N)N)C(=O)N[C@@H](Cc1cnc[nH]1)C(=O)N[C@@H](Cc1c[nH]c2ccccc12)C(=O)O [SKVWRHW]

- MIC [4]: ≥ 269 µM
- MIC [23]: ≥ 269 µM
SMILES: CC[C@H](C)[C@H](NC(=O)[C@H](CC(C)C)NC(=O)[C@H](CCC(=O)O)NC(=O)[C@H](CO)NC(=O)[C@H](CCCN=C(N)N)NC(=O)[C@@H](N)CO)C(=O)N[C@H](C(=O)N[C@@H](Cc1cnc[nH]1)C(=O)N[C@@H](CCC(N)=O)C(=O)N[C@@H](CCCN=C(N)N)C(=O)N[C@@H](CC(C)C)C(=O)N[C@@H](Cc1ccccc1)C(N)=O)C(C)C [SRSELIVHQRLF]

- MIC [1]: 2.44 µM (≈ 4.58 µg/mL)
- MIC [2]: ≥ 39.1 µM
SMILES: CC[C@H](C)[C@H](NC(=O)[C@@H](NC(=O)[C@H](CCCCN)NC(=O)[C@@H](NC(=O)[C@H](CCCCN)NC(=O)[C@@H]1CCCN1C(=O)[C@H](CCC(N)=O)NC(=O)[C@@H](NC(=O)[C@@H](N)Cc1c[nH]c2ccccc12)[C@@H](C)CC)[C@@H](C)O)C(C)C)C(=O)N[C@@H](C)C(=O)N[C@@H](Cc1ccc(O)cc1)C(=O)N[C@H](C(=O)N[C@@H](CCCN=C(N)N)C(=O)N[C@@H](Cc1ccc(O)cc1)C(=O)N[C@@H](CC(C)C)C(=O)O)C(C)C [WIQPKTKVIAYVRYL]

- MIC [1]: ≥ 156 µM
- MIC [2]: ≥ 625 µM
SMILES: CC[C@H](C)[C@H](NC(=O)[C@@H](N)Cc1c[nH]c2ccccc12)C(=O)N[C@@H](CCC(N)=O)C(=O)N1CCC[C@H]1C(=O)N[C@@H](CCCCN)C(=O)N[C@H](C(=O)N[C@@H](CCCCN)C(=O)N[C@H](C(=O)N[C@H](C(=O)N1CCC[C@H]1C(=O)N[C@@H](Cc1ccc(O)cc1)C(=O)N[C@H](C(=O)N[C@@H](C)C(=O)N[C@@H](Cc1ccc(O)cc1)C(=O)N[C@@H](CC(C)C)C(=O)O)C(C)C)[C@@H](C)CC)C(C)C)[C@@H](C)O [WIQPKTKVIPYVAYL]

Further lines, the compound ahead of its results:

SMILES: CC[C@H](C)[C@H](NC(=O)[C@H](Cc1c[nH]c2ccccc12)NC(=O)[C@H](CCCN=C(N)N)NC(=O)[C@H](CCCCN)NC(=O)[C@H](C)NC(=O)[C@H](CC(C)C)NC(=O)[C@H](CCCN=C(N)N)NC(=O)[C@H](CC(=O)O)NC(=O)[C@@H](NC(=O)[C@H](CC(N)=O)NC(=O)[C@H](CCC(=O)O)NC(=O)[C@H](CCC(=O)O)NC(=O)[C@H](CO)NC(=O)[C@@H](NC(=O)[C@H](CC(N)=O)NC(=O)[C@H](CCCN=C(N)N)NC(=O)[C@H](C)N)C(C)C)C(C)C)C(=O)N[C@@H](CCCCN)C(=O)O [ARNVSEENVDRLAKRWIK]
- MIC [3]: ≥ 68.7 µM

SMILES: CC[C@H](C)[C@H](NC(=O)CNC(=O)[C@@H](NC(=O)[C@H](C)NC(=O)[C@@H](NC(=O)[C@H](CCCCN)NC(=O)[C@@H]1CCCN1C(=O)[C@@H](NC(=O)[C@H](CCSC)NC(=O)[C@H](CO)NC(=O)[C@H](Cc1ccccc1)NC(=O)[C@@H](N)Cc1ccccc1)[C@@H](C)CC)[C@@H](C)CC)[C@@H](C)O)C(=O)N[C@@H](C)C(=O)N[C@@H](CO)C(=O)N[C@@H](CC(C)C)C(=O)N[C@H](C(=O)N[C@@H](CCCCN)C(=O)N[C@@H](CC(N)=O)C(=O)N[C@@H](CC(C)C)C(=O)O)C(C)C [FFSMIPKIATGIASLVKNL]
- MIC [4]: ≥ 100 µM
- MIC [5]: > 100 µM
- MIC [6]: > 100 µM

SMILES: CC[C@H](C)[C@@H]1NC(=O)[C@H](CCC(N)=O)NC(=O)[C@H](CCC(=O)O)NC(=O)[C@H](CCC(=O)O)NC(=O)[C@H](CCCCN)NC(=O)CNC(=O)[C@H](CC(C)C)NC(=O)[C@@H]2CSSC[C@@H](C(=O)N[C@@H](CCCN=C(N)N)C(=O)N[C@@H](CCCCN)C(=O)N[C@@H](CCCCN)C(=O)N[C@@H](CCCCN)C(=O)O)NC(=O)[C@@H]3CSSC[C@H](NC(=O)[C@H](Cc4ccccc4)NC(=O)[C@H](Cc4ccccc4)NC(=O)[C@H](CCCCN)NC(=O)[C@H](CCCN=C(N)N)NC(=O)[C@H](CC(C)C)NC(=O)[C@@H](NC(=O)[C@H](CCCCN)NC(=O)[C@@H]4CCCN4C(=O)[C@H](CC(C)C)NC(=O)[C@@H](N)Cc4ccccc4)[C@@H](C)O)C(=O)N[C@@H](CCCN=C(N)N)C(=O)N[C@@H]([C@@H](C)CC)C(=O)N[C@@H](CCCN=C(N)N)C(=O)NCC(=O)NCC(=O)N[C@@H](CCCN=C(N)N)C(=O)N[C@@H](CSSC[C@H](NC(=O)[C@H](CCCN=C(N)N)NC(=O)CNC1=O)C(=O)N[C@@H](CO)C(=O)N[C@@H](CC(N)=O)C(=O)N[C@@H](CO)C(=O)NCC(=O)N[C@@H](CCCN=C(N)N)C(=O)N[C@@H](CCCCN)C(=O)N3)C(=O)N[C@@H](C)C(=O)N[C@@H](C(C)C)C(=O)N[C@@H](CC(C)C)C(=O)N[C@@H](CC(N)=O)C(=O)N2 [FLPKTLRKFFCRIRGGRCAVLNCLGKEEQIGRCSNSGRKCCRKKK]
- MIC (Candida albicans): 2.41 µM (≈ 12.5 µg/mL)
- MIC [7]: 0.385 µM (≈ 2 µg/mL)
- MIC [4]: 2.41 µM (≈ 12.5 µg/mL)
- MIC (Staphylococcus aureus MR): 4.82 µM (≈ 25 µg/mL)

SMILES: CC[C@H](C)[C@H](NC(=O)[C@H](CCCCN)NC(=O)[C@H](CC(C)C)NC(=O)[C@H](CCCN=C(N)N)NC(=O)[C@H](CC(C)C)NC(=O)[C@H](CCCCN)NC(=O)[C@H](CCCCN)NC(=O)[C@H](CC(C)C)NC(=O)[C@H](CC(C)C)NC(=O)[C@H](CCCCN)NC(=O)[C@H](CCCCN)NC(=O)[C@H](CC(N)=O)NC(=O)[C@H](CCCN=C(N)N)NC(=O)[C@H](C)NC(=O)[C@H](CCSC)NC(=O)[C@@H]1CCCN1)C(=O)N[C@@H](C)C(=O)N[C@@H](Cc1ccccc1)C(=O)N[C@@H](CCCCN)C(=O)O [PMARNKKLLKKLRLKIAFK]
- MIC (Klebsiella pneumoniae): 16 µM (≈ 36.8 µg/mL)
- MIC [8]: 8 µM and 6.97 µM
- MIC [7]: 64 µM and 55.7 µM
- MIC [5]: 8 µM (≈ 18.4 µg/mL)
- MIC [9]: 16 µM (≈ 36.8 µg/mL)
- MIC [10]: 8 µM (≈ 18.4 µg/mL)
- MIC (Staphylococcus aureus): > 64 µM
- MIC [11]: 8 µM (≈ 18.4 µg/mL)
- MIC (Escherichia coli): 8 µM (≈ 18.4 µg/mL)
